In article PMC10891534, “The Staphylococcus aureus ArlS Kinase Inhibitor Tilmicosin Has Potent Anti-Biofilm Activity in Both Static and Flow Conditions” (Microorganisms, 2024):

Biological target: ArlS histidine kinase (ArlSHK) (Staphylococcus aureus, UniProt Q9KJN3)
Assay: Kinase-Glo luminescent ATPase/kinase assay with purified ArlSHK, […] ATP, dose-response
Format: biochemical

ArlS histidine kinase (ArlSHK), sequence (Q9KJN3 239-451): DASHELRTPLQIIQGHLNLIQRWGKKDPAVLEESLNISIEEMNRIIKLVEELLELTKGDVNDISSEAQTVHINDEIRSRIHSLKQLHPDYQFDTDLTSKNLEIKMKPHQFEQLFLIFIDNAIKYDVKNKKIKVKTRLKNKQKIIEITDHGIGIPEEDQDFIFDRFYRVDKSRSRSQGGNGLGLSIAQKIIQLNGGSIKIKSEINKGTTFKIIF

CC[C@H]1OC(=O)C[C@@H](O)[C@H](C)[C@@H](O[C@@H]2O[C@H](C)[C@@H](O)[C@H](N(C)C)[C@H]2O)[C@@H](CCN2C[C@H](C)C[C@H](C)C2)C[C@@H](C)C(=O)/C=C/C(C)=C/[C@@H]1CO[C@@H]1O[C@H](C)[C@@H](O)[C@@H](OC)[C@H]1OC [tilmicosin]
IC50: 1.09 µM
